Key:
Androgen receptor (AR) = target: T1, Androgen receptor (AR) (Homo sapiens, UniProt P10275); experiment: Androgen receptor (AR) reporter gene assay (ARE Luc); type: cell-based; conditions: AR+ARE/Luc HEK293T cells, with 11-KDHT, 24h incubation, Bright-Lite luminescence
T1 construct: expressed in transfected cells; host or cells: AR+ARE/Luc HEK293T cells
T1 sequence (P10275 1-920): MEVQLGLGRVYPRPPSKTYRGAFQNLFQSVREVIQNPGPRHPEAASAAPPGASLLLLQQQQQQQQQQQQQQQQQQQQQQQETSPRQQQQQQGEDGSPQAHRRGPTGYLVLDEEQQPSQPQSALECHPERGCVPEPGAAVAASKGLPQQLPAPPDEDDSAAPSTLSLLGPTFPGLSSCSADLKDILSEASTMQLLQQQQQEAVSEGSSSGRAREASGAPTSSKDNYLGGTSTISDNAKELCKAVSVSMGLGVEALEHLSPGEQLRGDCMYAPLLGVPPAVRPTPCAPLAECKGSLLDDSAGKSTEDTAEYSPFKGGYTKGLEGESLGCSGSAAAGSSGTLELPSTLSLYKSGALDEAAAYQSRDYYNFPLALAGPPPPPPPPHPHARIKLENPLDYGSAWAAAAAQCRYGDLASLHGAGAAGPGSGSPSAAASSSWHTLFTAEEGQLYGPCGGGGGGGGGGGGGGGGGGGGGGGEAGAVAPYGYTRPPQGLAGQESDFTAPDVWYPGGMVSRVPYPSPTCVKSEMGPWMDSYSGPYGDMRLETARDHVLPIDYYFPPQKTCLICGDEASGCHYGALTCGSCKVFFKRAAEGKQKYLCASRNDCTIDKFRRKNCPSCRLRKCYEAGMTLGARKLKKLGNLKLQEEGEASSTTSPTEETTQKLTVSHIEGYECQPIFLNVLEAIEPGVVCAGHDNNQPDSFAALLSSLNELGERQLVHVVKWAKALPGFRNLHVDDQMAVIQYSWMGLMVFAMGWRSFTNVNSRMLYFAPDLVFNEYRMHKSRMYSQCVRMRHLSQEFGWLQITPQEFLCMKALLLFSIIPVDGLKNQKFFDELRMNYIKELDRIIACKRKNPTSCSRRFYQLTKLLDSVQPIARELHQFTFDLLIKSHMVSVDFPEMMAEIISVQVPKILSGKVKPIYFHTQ
Method: Experimental Methods: 1. The described compounds were dissolved in 100% DMSO at a final concentration of 10 mM. 100 nL each of 400X compound to be tested and 400X 11-KDHT (40 nM) represtively were added to a 384-well assay plate with Echo, followed by 20 µL of complete medium, and centrifuged at 1000 rpm for 1 min, and oscillated for 20-30 min at room temperature. 2. 20 µL of AR+ARE/Luc HEK293T cells (10,000 cells/well) were inoculated into the assay plate containing the compounds and 11-KDHT, and centrifuged at 1000 rpm for 1 min. The assay plate was incubated in a 37 °C CO2 incubator for 24h. 3. 40 µL of Bright-Lite assay reagent was transferred to each well of the assay plate, centrifuged at 1000 rpm for 1 min, and shaken for 2 min at room temperature protected from light. 4. Luminescence values (RLU) were measured using Envision. […] Table 1. AR inhibition of Representative Compounds

AR-V7 = target: T2, AR-V7 (Homo sapiens, UniProt P10275); experiment: AR degradation experiment (AR-V7-HiBiT, Nano-Glo HiBiT Lytic Detection); type: cell-based; conditions: 22RV1 cells stably expressing AR-V7-HiBiT, 24 hr at 37 °C; concentration required for degradation 50% of the target protein
T2 construct: fusing HiBiT tag (PromegaTM) into the C-terminus of the AR-V7 genome of 22RV1 cells; host or cells: 22RV1 cells, CRISPR/Cas9 knock-in of HiBiT at the AR-V7 C-terminus
T2 sequence (P10275 1-644 isoform P10275-3): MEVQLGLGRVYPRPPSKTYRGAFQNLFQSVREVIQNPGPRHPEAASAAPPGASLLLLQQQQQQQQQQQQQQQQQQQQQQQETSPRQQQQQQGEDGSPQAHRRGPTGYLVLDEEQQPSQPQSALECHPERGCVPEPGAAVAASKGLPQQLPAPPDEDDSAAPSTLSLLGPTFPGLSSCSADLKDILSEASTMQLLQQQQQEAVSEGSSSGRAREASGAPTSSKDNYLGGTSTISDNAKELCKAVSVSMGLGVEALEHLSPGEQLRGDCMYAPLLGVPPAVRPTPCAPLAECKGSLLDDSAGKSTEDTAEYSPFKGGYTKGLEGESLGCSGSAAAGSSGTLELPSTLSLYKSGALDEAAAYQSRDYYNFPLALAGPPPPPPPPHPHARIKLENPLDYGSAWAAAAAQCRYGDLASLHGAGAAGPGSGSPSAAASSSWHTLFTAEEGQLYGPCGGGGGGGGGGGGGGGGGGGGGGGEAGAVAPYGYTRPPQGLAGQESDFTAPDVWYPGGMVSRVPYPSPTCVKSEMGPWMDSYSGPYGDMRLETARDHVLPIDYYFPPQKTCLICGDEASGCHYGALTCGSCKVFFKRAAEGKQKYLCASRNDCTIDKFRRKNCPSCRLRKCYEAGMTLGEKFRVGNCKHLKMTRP
Method: In this experiment, cells stably expressing AR-V7-HiBiT was constructed by fusing HiBiT tag (PromegaTM) into the C-terminus of the AR-V7 genome of 22RV1 cells (ATCC) using CRISPR/Cas9 technology. The concentration of test compounds started from 1000 nM, and diluted with DMSO by 3-fold gradient for 11 points. […]

Row | Structure (SMILES) | IC50 (Androgen receptor (AR)) [nM] | DC50 (AR-V7) [nM]
1 | N#Cc1cc2c(c(Cl)c1OCCCl)CCCC2c1cnc(NCCOCCOc2ccc3c(c2)C(=O)N(C2CCC(=O)NC2=O)C3=O)nc1 (stereo not shown) [HANT-315, 4-chloro-3-(2-chloroethoxy)-8-(2-(2-(2-(2,6-dioxopiperidin-3-yl)-1,3-dioxoisoindolin-5-yl)oxy)ethoxy-amino)pyrimidin-5-yl-5,6,7,8-tetrahydronaphthalene-2-carbonitrile] | 30 | 8.7
2 | N#Cc1cc2c(c(Cl)c1OCCCl)CCC[C@H]2c1cnc(NCCOCCOc2ccc3c(c2)C(=O)N(C2CCC(=O)NC2=O)C3=O)nc1 (stereo partly shown) [HANT-315-P1] | 2 | 4.3
3 | N#Cc1cc2c(c(Cl)c1OCCCl)CCCC2Nc1ccc(OCCCCNc2ccc3c(c2)C(=O)N(C2CCC(=O)NC2=O)C3=O)nc1 (stereo not shown) [HANT-331, 4-chloro-3-(2-chloroethoxy)-8-((6-(4-(2-(2,6-dioxopiperidin-3-yl)-1,3-dioxoisoindolin-5-yl)amino)butoxy)pyridin-3-amino)-5,6,7,8-tetrahydronaphthalene-2-carbonitrile] | 822 | > 10000
4 | N#Cc1cc2c(c(Cl)c1OCCCl)CCCC2c1cnc(N2CCC(OCCOc3ccc4c(c3)C(=O)N(C3CCC(=O)NC3=O)C4=O)CC2)nc1 (stereo not shown) [HANT-342] | 27 | 40
5 | CCOc1c(C#N)cc2c(c1Cl)CCCC2c1cnc(NCCOCCOc2ccc3c(c2)C(=O)N(C2CCC(=O)NC2=O)C3=O)nc1 (stereo not shown) [HANT-354] | 21 | 13
6 | N#Cc1cc2c(c(Cl)c1OCCCl)CCCC2c1cnc(N2CCC(OCCCOc3ccc4c(c3)C(=O)N(C3CCC(=O)NC3=O)C4=O)CC2)nc1 (stereo not shown) [HANT-371, 4-chloro-3-(2-chloroethoxy)-8-(2-(4-(3-((2-(2,6-dioxopiperidin-3-yl)-1,3-dioxoisoindol-5-yl)oxy)propoxy)piperidin-1-yl)pyrimidin-5-yl)-5,6,7,8-tetrahydronaphthalene-2-carbonitrile] | 292 | 284
7 | N#Cc1cc2c(c(Cl)c1OCCCl)CCCC2c1cnc(N2CCC(OC3CN(c4ccc5c(c4)C(=O)N(C4CCC(=O)NC4=O)C5=O)C3)CC2)nc1 (stereo not shown) [HANT-390] | 476 | 
8 | N#Cc1cc2c(c(Cl)c1OCCCl)CCCC2c1cnc(N2CCC(OCCNc3ccc4c(c3)C(=O)N(C3CCC(=O)NC3=O)C4=O)C2)nc1 (stereo not shown) [HANT-393] | 428 | 
9 | CCOc1c(C#N)cc2c(c1Cl)CCCC2c1cnc(NCCOC2CN(c3ccc4c(c3)C(=O)N(C3CCC(=O)NC3=O)C4=O)C2)nc1 (stereo not shown) [HANT-431, 4-chloro-8-(2-((2-(2-(1-(2-(2,6-dioxopiperidin-3-yl)-1,3-dioxoisoindol-5-yl)azetidin-3-yl)oxy)ethyl)amino)pyrimidin-5-yl)-3-ethoxy-5,6,7,8-tetrahydronaphthalene-2-carbonitrile] | 744 | 
10 | N#Cc1cc2c(c(Cl)c1OCCCl)CCCC2c1ccc(N2CCC(OCCCOc3ccc4c(c3)C(=O)N(C3CCC(=O)NC3=O)C4=O)CC2)nc1 (stereo not shown) [HANT-512] | 318 | 
11 | N#Cc1cc2c(c(Cl)c1OCCCl)CCCC2c1ccc(N2CC(OCCOc3ccc4c(c3)C(=O)N(C3CCC(=O)NC3=O)C4=O)C2)nc1 (stereo not shown) [HANT-513] | 7.6 | 
12 | N#Cc1cc2c(c(Cl)c1OCCCl)CCCC2c1ccc(N2CCC(OCCOc3ccc4c(c3)C(=O)N(C3CCC(=O)NC3=O)C4=O)CC2)nc1 (stereo not shown) [HANT-514] | 73 | 
13 | N#Cc1cc2c(c(Cl)c1OCCCl)CCCC2c1cnc2c(cnn2CCOCCOc2ccc3c(c2)C(=O)N(C2CCC(=O)NC2=O)C3=O)c1 (stereo not shown) [HANT-515] | 754 | 
14 | N#Cc1cc(C2CCCc3c2cc(C#N)c(OCCCl)c3Cl)cnc1N1CC(OCCOc2ccc3c(c2)C(=O)N(C2CCC(=O)NC2=O)C3=O)C1 (stereo not shown) [HANT-516] | 32 | 
15 | N#Cc1cc2c(c(Cl)c1OCCCl)CCCC2c1ccc(OC2CCC(Oc3ccc4c(c3)C(=O)N(C3CCC(=O)NC3=O)C4=O)CC2)nc1 (stereo not shown) [HANT-517] | 575 | 
16 | N#Cc1cc2c(c(Cl)c1OCCCl)CCCC2c1ccc(OC2CCC(OCCOc3ccc4c(c3)C(=O)N(C3CCC(=O)NC3=O)C4=O)CC2)nc1 (stereo not shown) [HANT-518] | 209 | 
17 | N#Cc1cc2c(c(Cl)c1OCCCl)CCCC2c1cnc(N2CC(OCCOc3ccc4c(c3)C(=O)N(C3CCC(=O)NC3=O)C4=O)C2)nc1 (stereo not shown) [HANT-519] | 23 | 

Further lines, results first:

Row | IC50 (Androgen receptor (AR)) [nM] | DC50 (AR-V7) [nM] | Structure (SMILES)
18 | 377 |  | CCOc1c(C#N)cc2c(c1Cl)CCCC2Nc1ccc(OCCCNc2ccc3c(c2)C(=O)N(C2CCC(=O)NC2=O)C3=O)nc1 (stereo not shown) [HANT-312, 4-chloro-8-(6-(3-((2-(2,6-dioxopiperidin-3-yl)-1,3-dioxoisoindolin-5-yl)amino)propoxy)pyridin-3-ylamino)-3-ethoxy-5,6,7,8-tetrahydronaphthalene-2-carbonitrile]
19 | 490 |  | N#Cc1cc2c(c(Cl)c1OCCCl)CCCC2c1cnc(NCCCNc2ccc3c(c2)C(=O)N(C2CCC(=O)NC2=O)C3=O)nc1 (stereo not shown) [HANT-314]
20 | 3870 |  | N#Cc1cc2c(c(Cl)c1OCCCl)CCC[C@@H]2c1cnc(NCCOCCOc2ccc3c(c2)C(=O)N(C2CCC(=O)NC2=O)C3=O)nc1 (stereo partly shown) [HANT-315-P2]
21 | 1830 |  | N#Cc1cc2c(c(Cl)c1OCCCl)CCCC2Nc1ccc(OCOCNc2ccc3c(c2)C(=O)N(C2CCC(=O)NC2=O)C3=O)nc1 (stereo not shown) [HANT-328]
22 | 123 |  | N#Cc1cc2c(c(Cl)c1OCCCl)CCCC2Nc1ccc(OCNc2ccc3c(c2)C(=O)N(C2CCC(=O)NC2=O)C3=O)nc1 (stereo not shown) [HANT-329]
23 | 657 | > 10000 | N#Cc1cc2c(c(Cl)c1OCCCl)CCCC2c1ccc(OCCCCOc2ccc3c(c2)C(=O)N(C2CCC(=O)NC2=O)C3=O)nc1 (stereo not shown) [HANT-338]
24 | 569 |  | N#Cc1cc2c(c(Cl)c1OCCCl)CCCC2c1ccc(OCCCNc2ccc3c(c2)C(=O)N(C2CCC(=O)NC2=O)C3=O)nc1 (stereo not shown) [HANT-339]
25 | 29 | 24 | N#Cc1cc2c(c(Cl)c1OCCCl)CCCC2c1ccc(NCCOCCOc2ccc3c(c2)C(=O)N(C2CCC(=O)NC2=O)C3=O)nc1 (stereo not shown) [HANT-346]
26 | 913 |  | N#Cc1cc2c(c(Cl)c1OCCCl)CCCC2Nc1ccc(OCOCNc2cccc3c2C(=O)N(C2CCC(=O)NC2=O)C3=O)nc1 (stereo not shown) [HANT-362]

From patent publication EP4722206A1, “BENZO(HETERO)CYCLOALKYL COMPOUNDS FOR ANDROGEN RECEPTOR-DEPENDENT DISEASES” (Haihe Biopharma Co., Ltd., priority 2023, dated 2024)
